{
  "source": "DBAASP",
  "test_in_all_cases": "≥ marks a high value that may be exact or a test limit, other limits are often not marked, values filed in µg/mL are converted to µM",
  "key": {"[1]": {"test_system": "Xanthomonas axonopodis pv. phaseoli"}, "Staphylococcus aureus 15": {"test_system": "Staphylococcus aureus 15"}, "Escherichia coli 319238": {"test_system": "Escherichia coli 319238"}, "Klebsiella pneumoniae M6": {"test_system": "Klebsiella pneumoniae M6"}, "[2]": {"test_system": "Acinetobacter baumannii NCTC 13302"}, "[3]": {"test_system": "Escherichia coli NCTC 12923"}, "[4]": {"test_system": "Acinetobacter baumannii NCTC 13424"}, "[5]": {"test_system": "Acinetobacter baumannii ATCC 17987"}, "[6]": {"test_system": "Enterococcus faecalis NCTC 12201"}, "[7]": {"test_system": "Enterococcus faecalis NCTC 775"}, "Escherichia coli LEC 001": {"test_system": "Escherichia coli LEC 001"}, "[8]": {"test_system": "Acinetobacter baumannii AYE"}, "[9]": {"test_system": "Klebsiella pneumoniae NCTC 13368"}, "[10]": {"test_system": "Pseudomonas aeruginosa PAO1"}, "[11]": {"test_system": "Staphylococcus aureus NCTC 9144"}, "[12]": {"test_system": "Pseudomonas syringae pv. tomato"}, "Acinetobacter baumannii": {"test_system": "Acinetobacter baumannii"}, "[13]": {"test_system": "Escherichia coli CFI_161_NDM"}, "[14]": {"test_system": "Enterococcus faecalis NCTC 12204"}, "[15]": {"test_system": "Pseudomonas aeruginosa NCTC 13437"}, "[16]": {"test_system": "Acinetobacter baylyi ADP1"}, "[17]": {"test_system": "Escherichia coli CFI_160_KPC2"}, "[18]": {"test_system": "Pseudomonas aeruginosa PA14"}, "[19]": {"test_system": "Enterococcus faecium E007"}, "[20]": {"test_system": "Klebsiella aerogenes ATCC 13048"}, "[21]": {"test_system": "Staphylococcus aureus ATCC 29231"}, "[22]": {"test_system": "Candida albicans ATCC 10231"}, "[23]": {"test_system": "Pseudomonas aeruginosa ATCC 27853"}, "[24]": {"test_system": "Staphylococcus aureus ATCC 49476"}, "Candida albicans": {"test_system": "Candida albicans"}, "Staphylococcus aureus MR": {"test_system": "Staphylococcus aureus MR"}, "[25]": {"test_system": "Pseudomonas aeruginosa K799"}, "Vibrio anguillarum": {"test_system": "Vibrio anguillarum"}, "Aeromonas salmonicida": {"test_system": "Aeromonas salmonicida"}, "[26]": {"test_system": "Pseudomonas aeruginosa Z61"}, "[27]": {"test_system": "Staphylococcus epidermidis C621"}, "[28]": {"test_system": "Salmonella enterica subsp. enterica serovar Typhimurium ATCC 14028s"}, "[29]": {"test_system": "Salmonella enterica serovar typhimurium MS7953s"}, "Kluyveromyces marxianus": {"test_system": "Kluyveromyces marxianus"}, "Micrococcus luteus": {"test_system": "Micrococcus luteus"}, "Aspergillus niger": {"test_system": "Aspergillus niger"}, "[30]": {"test_system": "Escherichia coli ATCC 25922"}, "Trichoderma harzianum": {"test_system": "Trichoderma harzianum"}, "Pachysolen tannophilus": {"test_system": "Pachysolen tannophilus"}, "[31]": {"test_system": "Staphylococcus aureus ATCC 6538P"}},
  "data": [
    {"smiles": "CC[C@H](C)[C@H](NC(=O)[C@H](CCCCN)NC(=O)[C@H](CCC(=O)O)NC(=O)[C@H](CCCCN)NC(=O)CNC(=O)[C@H](C)N)C(=O)N[C@@H](CCCN=C(N)N)C(=O)N[C@@H](CCCCN)C(=O)N[C@@H](CCCCN)C(=O)N[C@@H](CC(C)C)C(=O)N[C@@H](CCCCN)C(=O)N[C@@H](CC(N)=O)C(=O)N[C@@H](CCC(=O)O)C(=O)N[C@H](C(=O)N[C@@H](CCCCN)C(=O)N[C@@H](CCCCN)C(=O)N[C@@H](CCCCN)C(=O)N[C@@H](Cc1c[nH]c2ccccc12)C(=O)N[C@@H](CCCN=C(N)N)C(=O)N[C@@H](CCCCN)C(=O)N[C@@H](C)C(=O)N[C@H](C(=O)N[C@H](C(=O)N[C@@H](C)C(=O)N[C@@H](Cc1c[nH]c2ccccc12)C(=O)O)[C@@H](C)CC)C(C)C)[C@@H](C)CC", "note": "[AGKEKIRKKLKNEIKKKWRKAVIAW]", "values": [
      {"measurement": "MIC", "setting": "[1]", "result": 0.164, "unit": "µM"},
      {"measurement": "MIC", "setting": "Staphylococcus aureus 15", "result": "≥ 42", "unit": "µM"},
      {"measurement": "MIC", "setting": "Escherichia coli 319238", "result": 5.24, "unit": "µM"},
      {"measurement": "MIC", "setting": "Klebsiella pneumoniae M6", "result": 21, "unit": "µM"},
      {"measurement": "MIC", "setting": "[2]", "result": 0.656, "unit": "µM"},
      {"measurement": "MIC", "setting": "[3]", "result": 0.656, "unit": "µM"},
      {"measurement": "MIC", "setting": "[4]", "result": 5.24, "unit": "µM"},
      {"measurement": "MIC", "setting": "[5]", "result": 2.62, "unit": "µM"},
      {"measurement": "MIC", "setting": "[6]", "result": "≥ 42", "unit": "µM"},
      {"measurement": "MIC", "setting": "[7]", "result": "≥ 42", "unit": "µM"},
      {"measurement": "MIC", "setting": "Escherichia coli LEC 001", "result": 5.24, "unit": "µM"},
      {"measurement": "MIC", "setting": "[8]", "result": 0.656, "unit": "µM"},
      {"measurement": "MIC", "setting": "[9]", "result": "≥ 42", "unit": "µM"},
      {"measurement": "MIC", "setting": "[10]", "result": 42, "unit": "µM"},
      {"measurement": "MIC", "setting": "[11]", "result": 10.5, "unit": "µM"},
      {"measurement": "MIC", "setting": "[12]", "result": 0.328, "unit": "µM"},
      {"measurement": "MIC", "setting": "Acinetobacter baumannii", "result": 0.656, "unit": "µM"},
      {"measurement": "MIC", "setting": "[13]", "result": 1.31, "unit": "µM"},
      {"measurement": "MIC", "setting": "[14]", "result": 21, "unit": "µM"},
      {"measurement": "MIC", "setting": "[15]", "result": "≥ 42", "unit": "µM"},
      {"measurement": "MIC", "setting": "[16]", "result": 1.31, "unit": "µM"},
      {"measurement": "MIC", "setting": "[17]", "result": 2.62, "unit": "µM"}
    ]},
    {"smiles": "CC[C@H](C)[C@H](NC(=O)[C@H](CCCCN)NC(=O)[C@H](CCCCN)NC(=O)[C@H](Cc1c[nH]c2ccccc12)NC(=O)[C@@H](NC(=O)[C@H](CCCCN)NC(=O)[C@H](Cc1c[nH]c2ccccc12)NC(=O)[C@@H](N)CC(C)C)[C@@H](C)CC)C(=O)N[C@@H](Cc1c[nH]c2ccccc12)C(=O)N[C@@H](CCCN=C(N)N)C(=O)N[C@H](C(=O)NCC(=O)N[C@@H](Cc1c[nH]c2ccccc12)C(=O)N[C@@H](CC(N)=O)C(=O)N[C@@H](Cc1c[nH]c2ccccc12)C(=O)N[C@@H](CCCN=C(N)N)C(=O)O)C(C)C", "note": "[LWKIWKKIWRVGWNWR]", "values": [
      {"measurement": "MIC", "setting": "[18]", "result": 14.2, "unit": "µM"},
      {"measurement": "MIC", "setting": "[19]", "result": "≥ 56.7", "unit": "µM"},
      {"measurement": "MIC", "setting": "[20]", "result": 28.4, "unit": "µM"},
      {"measurement": "MIC", "setting": "[21]", "result": 7.09, "unit": "µM"},
      {"measurement": "MIC", "setting": "[22]", "result": 14.2, "unit": "µM"}
    ]},
    {"smiles": "CC[C@H](C)[C@H](NC(=O)[C@H](C)NC(=O)[C@H](CCCCN)NC(=O)CNC(=O)[C@H](C)NC(=O)[C@H](CO)NC(=O)[C@H](Cc1ccccc1)NC(=O)[C@H](CC(C)C)NC(=O)CNC(=O)CNC(=O)[C@@H](NC(=O)[C@@H](NC(=O)[C@H](Cc1cnc[nH]1)NC(=O)[C@H](Cc1cnc[nH]1)NC(=O)[C@@H](NC(=O)[C@@H](N)Cc1ccccc1)[C@@H](C)CC)[C@@H](C)CC)[C@@H](C)CC)C(=O)N[C@@H](Cc1cnc[nH]1)C(=O)N[C@@H](CCCN=C(N)N)C(=O)N[C@@H](CC(C)C)C(=O)N[C@H](C(=O)N[C@@H](CCCN=C(N)N)C(=O)O)[C@@H](C)CC", "note": "[FIHHIIGGLFSAGKAIHRLIR]", "values": [
      {"measurement": "MIC", "setting": "[23]", "result": "> 217", "unit": "µM"},
      {"measurement": "MIC", "setting": "[24]", "result": 27.2, "unit": "µM"},
      {"measurement": "MIC", "setting": "Candida albicans", "result": 54.3, "unit": "µM"},
      {"measurement": "MIC", "setting": "Staphylococcus aureus MR", "result": "≥ 109", "unit": "µM"}
    ]},
    {"smiles": "CC(C)C[C@H](NC(=O)[C@H](Cc1ccc(O)cc1)NC(=O)[C@H](Cc1cnc[nH]1)NC(=O)[C@@H](NC(=O)[C@H](CC(C)C)NC(=O)[C@H](C)NC(=O)[C@H](C)NC(=O)[C@H](CCCCN)NC(=O)CNC(=O)[C@@H](NC(=O)[C@H](Cc1cnc[nH]1)NC(=O)[C@H](CCCCN)NC(=O)CNC(=O)[C@@H](NC(=O)[C@H](Cc1cnc[nH]1)NC(=O)[C@H](C)NC(=O)[C@H](C)NC(=O)[C@H](CCCCN)NC(=O)[C@H](CCCCN)NC(=O)[C@H](Cc1ccccc1)NC(=O)[C@H](Cc1ccccc1)NC(=O)[C@H](CO)NC(=O)CNC(=O)[C@H](Cc1c[nH]c2ccccc12)NC(=O)CNC(=O)[C@@H](N)CCCCN)C(C)C)C(C)C)[C@@H](C)O)C(N)=O", "note": "[KGWGSFFKKAAHVGKHVGKAALTHYL]", "values": [
      {"measurement": "MIC", "setting": "[25]", "result": 0.704, "unit": "µM"},
      {"measurement": "MIC", "setting": "Vibrio anguillarum", "result": 0.704, "unit": "µM"},
      {"measurement": "MIC", "setting": "Aeromonas salmonicida", "result": 0.352, "unit": "µM"},
      {"measurement": "MIC", "setting": "[26]", "result": 0.704, "unit": "µM"},
      {"measurement": "MIC", "setting": "[27]", "result": 0.704, "unit": "µM"},
      {"measurement": "MIC", "setting": "[28]", "result": 0.704, "unit": "µM"},
      {"measurement": "MIC", "setting": "[29]", "result": 0.176, "unit": "µM"}
    ]},
    {"smiles": "CC[C@H](C)[C@H](NC(=O)[C@H](CC(C)C)NC(=O)[C@H](CCCCN)NC(=O)[C@@H](N)CC(=O)O)C(=O)NCC(=O)N[C@@H](CO)C(=O)N[C@H]1CSSC[C@@H]2NC(=O)[C@H](Cc3cnc[nH]3)NC(=O)CNC(=O)CNC(=O)[C@H](CCCCN)NC(=O)[C@H](Cc3ccc(O)cc3)NC(=O)CNC(=O)[C@H](CCCN=C(N)N)NC(=O)[C@H](CCCN=C(N)N)NC(=O)[C@H](CCCCN)NC(=O)[C@@H]3CSSC[C@@H](C(=O)N[C@@H](CCC(=O)O)C(=O)N[C@@H](CCC(=O)O)C(=O)O)NC(=O)[C@H](Cc4c[nH]c5ccccc45)NC(=O)[C@H](CSSC[C@H](NC(=O)[C@H](CC(=O)O)NC(=O)[C@H](CO)NC(=O)[C@H]([C@@H](C)O)NC(=O)[C@H](Cc4ccc(O)cc4)NC(=O)[C@H](CC(N)=O)NC(=O)[C@H]([C@@H](C)O)NC(=O)[C@H](C)NC(=O)CNC(=O)[C@H](Cc4c[nH]c5ccccc45)NC(=O)[C@H](C(C)C)NC1=O)C(=O)N[C@@H](CC(N)=O)C(=O)N[C@@H](C)C(=O)N[C@@H](CCC(=O)O)C(=O)N3)NC(=O)[C@H](CC(N)=O)NC(=O)[C@H](C(C)C)NC(=O)[C@H](CC(N)=O)NC(=O)[C@H](Cc1c[nH]c3ccccc13)NC(=O)[C@H](Cc1ccccc1)NC(=O)[C@H](CO)NC(=O)CNC2=O", "note": "[DKLIGSCVWGATNYTSDCNAECKRRGYKGGHCGSFWNVNCWCEE]", "values": [
      {"measurement": "MIC", "setting": "Kluyveromyces marxianus", "result": 2.9, "unit": "µM"},
      {"measurement": "MIC", "setting": "Micrococcus luteus", "result": 1.9, "unit": "µM"},
      {"measurement": "MIC", "setting": "Candida albicans", "result": 2.9, "unit": "µM"},
      {"measurement": "MIC", "setting": "Aspergillus niger", "result": 2.9, "unit": "µM"},
      {"measurement": "MIC", "setting": "[30]", "result": 1, "unit": "µM"},
      {"measurement": "MIC", "setting": "Trichoderma harzianum", "result": 2.9, "unit": "µM"},
      {"measurement": "MIC", "setting": "Pachysolen tannophilus", "result": 2.9, "unit": "µM"},
      {"measurement": "MIC", "setting": "[31]", "result": 8, "unit": "µM"}
    ]}
  ]
}
